In PubChem BioAssay (NCI):
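All cell lines were grown in 96-well plates and treated with compound for 48 hours. Abbreviation: GI50, concentration required for 50% inhibition of growth. The concentration for full growth arrest is given as TGI.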

How the values were obtained:
Experiment in all cases: NCI tumour cell line growth inhibition, 48 h; in the data active = GI50 below about 0.43 µM; inactive = the rest
DU-145 prostate = test system: DU-145 prostate
HT29 colon = test system: HT29 colon
RPMI-8226 leukemia = test system: RPMI-8226 leukemia
SK-MEL-28 melanoma = test system: SK-MEL-28 melanoma
SNB-19 CNS = test system: SNB-19 CNS
SW-620 colon = test system: SW-620 colon
OVCAR-4 ovarian = test system: OVCAR-4 ovarian
NCI-H23 lung = test system: NCI-H23 lung
TK-10 renal = test system: TK-10 renal
OVCAR-8 ovarian = test system: OVCAR-8 ovarian
NCI-H460 lung = test system: NCI-H460 lung
LOX IMVI melanoma = test system: LOX IMVI melanoma
HCC-2998 colon = test system: HCC-2998 colon
OVCAR-5 ovarian = test system: OVCAR-5 ovarian
MDA-MB-435 = test system: MDA-MB-435
EKVX NSCLC = test system: EKVX NSCLC
SK-OV-3 ovarian = test system: SK-OV-3 ovarian
SF-539 CNS = test system: SF-539 CNS
MOLT-4 leukemia = test system: MOLT-4 leukemia
MDA-MB-231 breast = test system: MDA-MB-231 breast
M14 melanoma = test system: M14 melanoma
IGROV1 ovarian = test system: IGROV1 ovarian
T-47D breast = test system: T-47D breast
COLO 205 colon = test system: COLO 205 colon
SF-268 CNS = test system: SF-268 CNS
ACHN renal = test system: ACHN renal
CAKI-1 renal = test system: CAKI-1 renal
HS 578T breast = test system: HS 578T breast
U251 CNS = test system: U251 CNS
A498 renal = test system: A498 renal
SK-MEL-2 melanoma = test system: SK-MEL-2 melanoma
SF-295 CNS = test system: SF-295 CNS
NCI-H522 lung = test system: NCI-H522 lung
PC-3 prostate = test system: PC-3 prostate
HOP-92 NSCLC = test system: HOP-92 NSCLC
NCI/ADR-RES ovarian = test system: NCI/ADR-RES ovarian
CCRF-CEM leukemia = test system: CCRF-CEM leukemia
UACC-62 melanoma = test system: UACC-62 melanoma
A549 NSCLC = test system: A549 NSCLC
MCF7 breast = test system: MCF7 breast
OVCAR-3 ovarian = test system: OVCAR-3 ovarian
SNB-75 CNS = test system: SNB-75 CNS
SK-MEL-5 melanoma = test system: SK-MEL-5 melanoma
K-562 leukemia = test system: K-562 leukemia
UACC-257 melanoma = test system: UACC-257 melanoma
UO-31 renal = test system: UO-31 renal
NCI-H226 lung = test system: NCI-H226 lung
HCT-15 colon = test system: HCT-15 colon
HOP-62 NSCLC = test system: HOP-62 NSCLC
786-0 renal = test system: 786-0 renal
MALME-3M melanoma = test system: MALME-3M melanoma
HCT-116 colon = test system: HCT-116 colon
RXF 393 renal = test system: RXF 393 renal
SN12C renal = test system: SN12C renal
KM12 colon = test system: KM12 colon
BT-549 breast = test system: BT-549 breast

Cc1ccc2c(-c3ccnc(Nc4cccc(C(F)(F)F)c4)n3)c(-c3ccccc3)nn2n1
inactive: GI50 (DU-145 prostate) 12.3 µM | GI50 (HT29 colon) 2.28 µM | GI50 (RPMI-8226 leukemia) > 14.2 µM | GI50 (SK-MEL-28 melanoma) > 15.4 µM | GI50 (SNB-19 CNS) > 17.9 µM | GI50 (SW-620 colon) 7.81 µM | GI50 (OVCAR-4 ovarian) 12 µM | GI50 (NCI-H23 lung) 11.8 µM | GI50 (TK-10 renal) 3.57 µM | GI50 (OVCAR-8 ovarian) 9.27 µM | GI50 (NCI-H460 lung) 6.42 µM | GI50 (LOX IMVI melanoma) 4.92 µM | GI50 (HCC-2998 colon) 5.99 µM | GI50 (OVCAR-5 ovarian) 10.2 µM | GI50 (MDA-MB-435) 6.77 µM | GI50 (EKVX NSCLC) 10.5 µM | GI50 (SK-OV-3 ovarian) 0.597 µM | GI50 (SF-539 CNS) 6.56 µM | GI50 (MOLT-4 leukemia) > 25 µM | GI50 (MDA-MB-231 breast) 3.34 µM | GI50 (M14 melanoma) 10.5 µM | GI50 (IGROV1 ovarian) 2.1 µM | GI50 (T-47D breast) 6.95 µM | GI50 (COLO 205 colon) 4.04 µM | GI50 (SF-268 CNS) > 15.2 µM | GI50 (ACHN renal) 1.97 µM | GI50 (CAKI-1 renal) 2.83 µM | GI50 (HS 578T breast) 7.13 µM | GI50 (U251 CNS) 10.3 µM | GI50 (A498 renal) 5.72 µM | GI50 (SK-MEL-2 melanoma) 6.28 µM | GI50 (SF-295 CNS) > 13.4 µM | GI50 (NCI-H522 lung) 5.73 µM | GI50 (PC-3 prostate) > 13 µM | GI50 (HOP-92 NSCLC) > 25 µM | GI50 (NCI/ADR-RES ovarian) 8.47 µM | GI50 (CCRF-CEM leukemia) 7.77 µM | GI50 (UACC-62 melanoma) 6.38 µM | GI50 (A549 NSCLC) 6.18 µM | GI50 (MCF7 breast) 2.85 µM | GI50 (OVCAR-3 ovarian) 5.73 µM | GI50 (SNB-75 CNS) 3.87 µM | GI50 (SK-MEL-5 melanoma) 4.05 µM | GI50 (K-562 leukemia) > 25 µM | GI50 (UACC-257 melanoma) 8.31 µM | GI50 (UO-31 renal) 1.16 µM | GI50 (NCI-H226 lung) 6.01 µM | GI50 (HCT-15 colon) 5.34 µM | GI50 (HOP-62 NSCLC) 14.4 µM | GI50 (786-0 renal) 4.67 µM | GI50 (MALME-3M melanoma) > 16.4 µM | GI50 (HCT-116 colon) 4.32 µM | GI50 (RXF 393 renal) 2.95 µM | GI50 (SN12C renal) 3.82 µM | GI50 (KM12 colon) 11.1 µM | GI50 (BT-549 breast) 15 µM
> 24 µM: TGI (BT-549 breast)
16.1 µM: TGI (HCC-2998 colon)
24.6 µM: TGI (OVCAR-5 ovarian)
17 µM: TGI (NCI-H226 lung)
> 22.5 µM: TGI (SW-620 colon)
> 15.1 µM: TGI (786-0 renal)
> 16.6 µM: TGI (UACC-257 melanoma)
> 18.3 µM: TGI (KM12 colon)
> 18.8 µM: TGI (OVCAR-3 ovarian)
> 15.8 µM: TGI (SK-OV-3 ovarian)
> 15.5 µM: TGI (HT29 colon) | TGI (SN12C renal)
> 12.2 µM: TGI (HCT-116 colon)
> 15.4 µM: TGI (A498 renal)
> 25 µM: TGI (RPMI-8226 leukemia) | TGI (SK-MEL-28 melanoma) | TGI (SNB-19 CNS) | TGI (OVCAR-4 ovarian) | TGI (NCI-H23 lung) | TGI (OVCAR-8 ovarian) | TGI (MDA-MB-435) | TGI (EKVX NSCLC) | TGI (MOLT-4 leukemia) | TGI (COLO 205 colon) | TGI (SF-268 CNS) | TGI (ACHN renal) | TGI (CAKI-1 renal) | TGI (HS 578T breast) | TGI (U251 CNS) | TGI (SF-295 CNS) | TGI (PC-3 prostate) | TGI (HOP-92 NSCLC) | TGI (NCI/ADR-RES ovarian) | TGI (CCRF-CEM leukemia) | TGI (A549 NSCLC) | TGI (MCF7 breast) | TGI (SNB-75 CNS) | TGI (K-562 leukemia) | TGI (UO-31 renal) | TGI (HOP-62 NSCLC)
8.57 µM: TGI (RXF 393 renal)
14.3 µM: TGI (SK-MEL-2 melanoma)
> 14.7 µM: TGI (NCI-H522 lung)
> 17.2 µM: TGI (LOX IMVI melanoma) | TGI (M14 melanoma)
> 16.1 µM: TGI (UACC-62 melanoma)
8.64 µM: TGI (MDA-MB-231 breast)
> 16.4 µM: TGI (NCI-H460 lung)
> 19 µM: TGI (HCT-15 colon)
11.4 µM: TGI (TK-10 renal)
> 19.6 µM: TGI (SF-539 CNS)
> 23.7 µM: TGI (T-47D breast)
24.4 µM: TGI (DU-145 prostate) | TGI (IGROV1 ovarian)
> 22.8 µM: TGI (MALME-3M melanoma)
7.94 µM: TGI (SK-MEL-5 melanoma)
